Measured values taken from PMC6017319, “Potent GH20 N-Acetyl-β-D-hexosaminidase Inhibitors: N-Substituted 3-acetamido-4-amino-5-hydroxymethyl-cyclopentanediols” (Molecules : A Journal of Synthetic Chemistry and Natural …, 2018).
Where two headings read alike, the source gives them in different places.

How the values were obtained:
[1] = target: T1, Streptomyces plicatus N-acetyl-β-hexosaminidase (SpHex) (Streptomyces plicatus, UniProt O85361); test: SpHex kinetic inhibition assay (4-nitrophenyl N-acetyl-β-D-glucosaminide substrate, competitive model); format: biochemical
T1 construct: made in house; host or cells: E. coli
T1 sequence (O85361 1-506): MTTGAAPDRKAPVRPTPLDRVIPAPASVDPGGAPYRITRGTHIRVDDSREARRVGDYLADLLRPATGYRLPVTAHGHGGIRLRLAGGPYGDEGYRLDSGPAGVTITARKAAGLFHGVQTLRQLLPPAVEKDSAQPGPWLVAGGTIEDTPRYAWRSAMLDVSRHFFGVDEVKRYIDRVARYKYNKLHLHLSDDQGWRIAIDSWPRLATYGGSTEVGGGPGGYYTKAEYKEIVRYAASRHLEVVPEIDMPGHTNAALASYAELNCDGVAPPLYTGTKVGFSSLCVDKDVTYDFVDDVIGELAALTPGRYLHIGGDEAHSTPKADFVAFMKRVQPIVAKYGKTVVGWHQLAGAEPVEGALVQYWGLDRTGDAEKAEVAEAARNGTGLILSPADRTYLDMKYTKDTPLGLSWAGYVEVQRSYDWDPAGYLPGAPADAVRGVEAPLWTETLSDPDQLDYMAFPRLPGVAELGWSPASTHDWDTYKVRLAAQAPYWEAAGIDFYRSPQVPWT
Protocol: Streptomyces plicatus N-acetyl-β-hexosaminidase, SpHex, was expressed and purified in E. coli as described previously. Kinetic studies were performed at 25 °C in the assay buffer (sodium phosphate (50 mM), sodium citrate (50 mM), NaCl (100 mM), BSA (2 mg/mL), pH = 6.0). The enzyme was incubated with different concentrations of the inhibitors for 2–5 min prior to the start of the reaction by addition of the substrate (4-nitrophenyl N-acetyl-β-D-glucosaminide) and the initial rates were measured by monitoring the increase in absorbance at 405 nm for three to five minutes using a microplate reader (Synergy H1, BioTek, VT, USA). Ki determinations were performed using two or three different substrate concentrations. For each one of these substrate concentrations a range of five to eight different inhibitor concentrations bracketing the ultimately determined Ki value were used. Dixon plots (1/rate vs [I]) were constructed to validate the use of a competitive inhibition model. The data were then fit to a competitive inhibition model using non-linear regression analysis with GraFit 7.0 (Erithacus Software, UK). Assays were done twice using enzyme concentrations of 0.3 nM and 0.03 nM respectively in order to check compliance with the assumptions of Michaelis Menten kinetics ([E] << [I]). In addition, for compound 25, the assays were done a third time with the concentration of enzyme lowered to 0.003 nM. In all cases, the Ki values were in good agreement.

[2] = target: T2, human lysosomal N-acetyl-β-hexosaminidase A (Homo sapiens, UniProt P06865); test: Human N-acetyl-β-hexosaminidase A activity in fibroblast homogenate (4-MU N-acetyl-β-glucosaminide-6-sulfate substrate); format: biochemical; conditions: normal human skin fibroblast homogenate, pH 4.4, 37 °C, 60 min; read-out: IC50 with human lysosomal N-acetyl-β-D-hexosaminidase A
T2 construct: endogenous in cells; host or cells: human skin fibroblasts (wild type), cell homogenate
From the text: All cells used in this study were between the third and nineteenth passages.

[3] = target: T1, Streptomyces plicatus N-acetyl-β-hexosaminidase (SpHex); parameters: method as in PMID 11828466; conditions: with the same enzyme; read-out: Ki with SpHex (reference compound); cited from earlier work

T2 sequence (P06865 89-529): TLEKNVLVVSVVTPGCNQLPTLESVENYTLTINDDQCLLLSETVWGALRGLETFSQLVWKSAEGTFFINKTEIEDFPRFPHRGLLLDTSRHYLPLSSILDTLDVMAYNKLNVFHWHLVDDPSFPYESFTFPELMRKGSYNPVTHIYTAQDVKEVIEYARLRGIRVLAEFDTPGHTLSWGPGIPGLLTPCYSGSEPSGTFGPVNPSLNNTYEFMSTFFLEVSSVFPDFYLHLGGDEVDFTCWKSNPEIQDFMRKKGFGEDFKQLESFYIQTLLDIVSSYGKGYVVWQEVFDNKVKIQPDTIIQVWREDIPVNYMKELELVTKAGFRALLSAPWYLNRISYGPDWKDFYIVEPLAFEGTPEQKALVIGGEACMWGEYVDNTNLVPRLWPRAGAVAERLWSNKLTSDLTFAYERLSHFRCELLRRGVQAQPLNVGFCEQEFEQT
T2 sequence (P07686 122-311 partner limits assumed): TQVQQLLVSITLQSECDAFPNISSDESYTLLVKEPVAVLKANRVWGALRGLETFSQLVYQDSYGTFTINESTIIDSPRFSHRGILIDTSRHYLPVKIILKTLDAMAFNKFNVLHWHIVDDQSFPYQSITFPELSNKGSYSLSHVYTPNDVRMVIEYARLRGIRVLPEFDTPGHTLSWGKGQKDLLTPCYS
T2 sequence (P07686 315-556 partner limits assumed): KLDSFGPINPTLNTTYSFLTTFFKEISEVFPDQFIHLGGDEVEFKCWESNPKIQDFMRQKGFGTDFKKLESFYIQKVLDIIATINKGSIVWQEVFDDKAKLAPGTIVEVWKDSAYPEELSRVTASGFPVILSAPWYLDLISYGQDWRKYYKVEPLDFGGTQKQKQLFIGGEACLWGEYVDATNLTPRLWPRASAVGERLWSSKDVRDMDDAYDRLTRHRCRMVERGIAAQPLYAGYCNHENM

| Ki [1] [nM] | IC50 [2] [nM] | Ki ([1]; 25 °C, pH 6.0, competitive inhibition model, read-out: Ki-values with SpHex) [nM] | SMILES | Ki [3] [nM] |
| --- | --- | --- | --- | --- |
| 0.6 | 880 | – | CCCCCCNC1C(CO)C(O)C(O)C1NC(C)=O (centres unmarked) [compound 21] | – |
| 0.7 | – | – | COC(=O)CCCCCNC1C(CO)C(O)C(O)C1NC(C)=O [compound 22, (1S,2R,3S,4R,5R)-N-(Methoxycarbonyl)pentyl-3-acetamido-4-amino-5-hydroxymethyl-cyclopentanetriol] | – |
| – | – | 0.7 | CC(=O)NC1C(N)C(CO)C(O)C1O (centres unmarked) [compound 20] | – |
| 0.06 | 300 | – | CC(=O)NC1C(O)C(O)C(CO)C1NCCCCCCNS(=O)(=O)c1cccc2c(N(C)C)cccc12 [compound 25, (1S,2R,3S,4R,5R)-N-(6-Dansylamino)hexyl-3-acetamido-4-amino-5-hydroxymethyl-cyclopentanetriol] | – |
| – | 31000 | – | CC(=O)NC1CNC(CO)C(O)C1O (centres unmarked) [compound 1, 2-acetamido-1,2-dideoxynojirimycin, reference compound] | 80000 |
